Here are results for 8 compounds from EP2927685A1, “Suitable hepatocytes for in-vitro hepatitis tests” (Medicyte GmbH, priority 2014, dated 2015).

Where two headings read alike, the source gives them in different places.

For data set [1], the system named is primary human hepatocyte transduced with HPV E6 and E7 genes.
Data set [2] has as its system differentiated hepatocytes. The conditions noted are these: human, 48 h.
The test system of data set [3] is differentiated hepatocytes. The data set is described as follows: Intrahepatic cholestasis: bile secretion by CDFDA staining. In kind it is cell-based, human. The conditions noted are these: 24 hours of exposure, compared to melatonin.
Data set [4] concerns differentiated hepatocytes. As to the kind of experiment: Apoptosis quantification by TUNEL.
Data set [5] deals with CYP450. The conditions noted are these: human, hepatocytes, 72 h, 200 µM.
Data set [6] deals with CYP3A4/5, 2E1, 2B6 and 1A1. The data set is described as follows: Cytochrome P450 inhibition in differentiated hepatocytes. In kind it is in vitro ADME, human. The conditions noted are these: after 30 min of incubation, 200 µM naringenin.
The test system of data set [7] is CYP1A1. The data set is described as follows: Cytochrome P450 induction in differentiated hepatocytes (CYP1A1). In kind it is in vitro ADME, human. The conditions noted are these: 50 µM omeprazole, normalized to vehicle-only controls.

As for `N#CC(=C(/N)Sc1ccccc1N)/C(C#N)=C(\N)Sc1ccccc1N` [U0126], the “epithelial phenotype of the cells” value in data set [1] is “stable E-Cadherin positive epithelial phenotype”.

In the case of `CC(=O)Oc1ccccc1C(=O)O` [acetylsalicylic acid], in data set [2], the “increase in intracellular lipids compared to control” value is given as 33-47%. Take `CN(C)CCCN1c2ccccc2Sc2ccc(Cl)cc21` [chlorpromazine]: the “bile secretion (measure of intrahepatic cholestasis)” value in data set [3] is given as “loss of bile secretion function”. With `COc1ccc2[nH]cc(CCNC(C)=O)c2c1` [melatonin], in data set [4] (differentiated hepatocytes exposed for 24 hours to TC20 values, TUNEL), the “Percent apoptosis (positive nuclei)” value was 4%.

For `O=C1C[C@@H](c2ccc(O)cc2)Oc2cc(O)cc(O)c21` [naringenin], the “increase in CYP450 activity compared with vehicle-treated cells” value in data set [5] is listed as 5-7 fold. For the same compound, in data set [6], the “inhibition of CYP3A4/5, 2E1, 2B6 and 1A1” value is “drastically inhibited”. Turning to `COc1ccc2[nH]c([S+]([O-])Cc3ncc(C)c(OC)c3C)nc2c1` (stereo not drawn) [omeprazole], the “CYP1A1 increased by stimulation” value in data set [7] is 10 folds.

For `Cc1c(C)c2c(c(C)c1O)CCC(C)(COc1ccc(CC3SC(=O)NC3=O)cc1)O2` (stereo not drawn) [troglitazone], the “bile secretion (measure of intrahepatic cholestasis)” value in data set [3] is on record as “loss of bile secretion function”. As for aflatoxin B1, in data set [4], the “Percent apoptosis (positive nuclei)” value stood at 23%.
